Measured values reported in patent US12054509B2, “Antimicrobial compounds, compositions, and uses thereof” (Lakewood Amedex, Inc., priority 2017, dated 2024).

Key:
Assay type in all cases: cell-based
E. coli ATCC 25922 = assay: Bacterial cytological profiling (Example 6), E. coli;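 on effect on cell envelope: tested at 1 0.5 and 0.25 times MIC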
Procedure: (§1) This bacterial cytological profiling (BCP) study uses methods and materials described previously by Nonejuie, P., Burkart, M., Poglianoa, K., Pogiano, J. (2013). Bacterial cytological profiling rapidly identifies the cellular pathways targeted by antibacterial molecules. Proc. Natl. Acad. Sci. U.S.A. 110(40):16169-16174. doi: 10.1073/pnas.1311066110.
(§2) Wild type strains of E. coli ATCC 25922 or P. aeruginosa K2732 are grown in rich media (unbuffered 2× Lysogeny broth [LB]) at 30 C to an OD600˜0.4. These cultures are then split and each sample treated with the appropriate concentration of Nu-8 in unbuffered or buffered LB (final mixture OD600˜0.1). Cells exposed without Nu-8 are buffered to pH 4 with phosphoric acid.
(§3) The BCP is performed in LB media buffered to pH 4. The minimum inhibitory concentration (MIC) is measured for Nu-3, Nu-4, Nu-5, and Nu-8 against each bacterial strain. As one of ordinary skill in the art understands, minimum inhibitory concentrations are the lowest concentration of an antimicrobial that will inhibit the visible growth of a microorganism after overnight incubation. […] Cellular viability is assayed at three time points (5 minutes and 4 and 24 h following the onset of treatment).
For imaging E. coli, treated cells are stained with 1 μg/Ml FM4-64, 2 μg/mL DAPI, and 0.5 μM SYTOXGreen (Molecular Probes/Invitrogen). P. aeruginosa samples are stained 0.5 μM SYTOX Green, 28 μg/mL DAPI, and 4.5 μg/mL FM 4-64. Cells are transferred to an agarose pad (20% LB, 1% agarose) for imaging as described in Pogliano, J., Osborne, N., Sharp, M. D., Abanes-De Mello, A., Perez, A., Sun, Y.-L. and Pogliano, K. (1999), A vital stain for studying membrane dynamics in bacteria: a novel mechanism controlling septation during Bacillus subtilis sporulation. Molecular Microbiology, 31: 1149-1159. doi:10.1046/j.1365-2958.1999.01255.x.

[1] = system: E. coli ATCC 25922 or P. aeruginosa K2732; assay: Bacterial cytological profiling (Example 6), cell viability, strain not stated; details: within minutes, from initial 10^9 CFU/mL
Procedure: as §1, §2, §3

Candida Albicans = assay: MIC against a single isolate (Example 26); details: single isolate, read-out: C. albicans MIC
Procedure: (§4) Bacterial strains evaluated in this study include Escherichia coli, Klebsiella spp, Serratia marcescens, Proteus mirabilis/vulgaris, Citrobacter spp, Providencia spp, Morganella morganii, Pseudomonas aeruginosa, Staphylococcus aureus (MRSA only), and Enterococcus faecalis. Nu-8 test solutions are adjusted to pH 3.5 with citric acid, and MIC is evaluated per the CLSI methods in Mueller-Hinton broth supplemented accordingly to facilitate growth of specific strains.
(§5) MIC was determined as per Example 9 using LAI-101, LAI-102, Nu-10, LAI-105, LAI-106, Nu-3, and Nu-8 against a single isolate of Escherichia coli. Pseudomonas aeruginosa, Staphylococcus aureus (MRSA only), and Candida Albicans. For all microbe species, the LAI-101, LAI-102, Nu-10, LAI-105, and LAI-106 all perform at least as well as, and in many experiments better than, Nu-8 and Nu-3, which are both already quite active compounds.

Escherichia coli = assay: MIC against a single isolate (Example 26); details: single isolate, read-out: E. coli MIC
Procedure: as §4, §5

[2] = system: Staphylococcus aureus (MRSA only); assay: MIC against a single isolate (Example 26); details: single isolate, read-out: S. aureus MIC
Procedure: as §4, §5

E. coli (ATCC 25922) = assay: Time kill assay in saline at pH 3.5 (Example 27); details: for Log10 CFU/mL: pH 3.5
Procedure: Log10 5 CFU of E. coli (ATCC 25922) were suspended in saline. Additionally, a sample of the saline only was prepared as a vehicle control (V.C.). Solutions of Nu-3, Nu-8, and Nu-10 at varying concentrations were adjusted to pH 3.5 with citric acid and added to the E. coli suspensions. At each time point (0, 1, 2.5, 5, 10, and 20 minutes), the treated bacterial suspensions were plated and incubated for 24 hrs, and each plate was read to determine the CFU count.
Tables 12-14 provide the time kill assay data for Nu-3 (Table 12), Nu-8 (Table 13) and Nu-10 (Table 14) against E. coli.

Question: What does the source list for `CCCCOP(=O)(O)OC[C@H]1O[C@@H](n2ccc(N)nc2=O)C[C@@H]1OP(=O)(O)OCCCC` [Nu-8, sodium ((2R,3S,5R)-5-(4-amino-2-oxopyrimidin-1(2H)-yl)-3-((butoxyoxidophosphor-yl)oxy)tetrahydrofuran-2-yl)methyl butyl phosphate]?
Answer: effect on cell envelope (E. coli ATCC 25922; BCP): affect the cell envelope; cell membrane permeability (E. coli ATCC 25922; buffered pH 4 or unbuffered LB): increase cell membrane permeability; DNA condensation (E. coli ATCC 25922; higher treatment concentrations, buffered pH 4): causes DNA condensation; cell viability [1]: < 10^2 CFU/mL; MIC (Candida Albicans): > 50 mg/mL; MIC (Escherichia coli): > 50 mg/mL; MIC [2]: > 50 mg/mL; Log10 CFU/mL (E. coli (ATCC 25922); 2.5% solution, 0 min): 5.20 Log10 CFU/mL; Log10 CFU/mL (E. coli (ATCC 25922); 2.5% solution, 1 min): 4.93 Log10 CFU/mL; Log10 CFU/mL (E. coli (ATCC 25922); 2.5% solution, 2.5 min): 4.90 Log10 CFU/mL; Log10 CFU/mL (E. coli (ATCC 25922); 2.5% solution, 5 min): 4.93 Log10 CFU/mL; Log10 CFU/mL (E. coli (ATCC 25922); 2.5% solution, 10 min): 4.90 Log10 CFU/mL; Log10 CFU/mL (E. coli (ATCC 25922); 2.5% solution, 20 min): 4.93 Log10 CFU/mL; Log10 CFU/mL (E. coli (ATCC 25922); 5% solution, 0 min): 5.20 Log10 CFU/mL; Log10 CFU/mL (E. coli (ATCC 25922); 5% solution, 1 min): 4.88 Log10 CFU/mL; Log10 CFU/mL (E. coli (ATCC 25922); 5% solution, 2.5 min): 4.92 Log10 CFU/mL; Log10 CFU/mL (E. coli (ATCC 25922); 5% solution, 5 min): 4.90 Log10 CFU/mL; Log10 CFU/mL (E. coli (ATCC 25922); 5% solution, 10 min): 4.95 Log10 CFU/mL; Log10 CFU/mL (E. coli (ATCC 25922); 5% solution, 20 min): 4.90 Log10 CFU/mL; Log10 CFU/mL (E. coli (ATCC 25922); 10% solution, 0 min): 5.20 Log10 CFU/mL; Log10 CFU/mL (E. coli (ATCC 25922); 10% solution, 1 min): 4.86 Log10 CFU/mL; Log10 CFU/mL (E. coli (ATCC 25922); 10% solution, 2.5 min): 4.79 Log10 CFU/mL; Log10 CFU/mL (E. coli (ATCC 25922); 10% solution, 5 min): 4.76 Log10 CFU/mL; Log10 CFU/mL (E. coli (ATCC 25922); 10% solution, 10 min): 4.71 Log10 CFU/mL; Log10 CFU/mL (E. coli (ATCC 25922); 10% solution, 20 min): 4.75 Log10 CFU/mL; kill of the bacteria (E. coli (ATCC 25922); concentration of 10%, at 20 mins): modest kill
